This is an account of results in patent US11667602B2, “Compounds and their use” (AstraZeneca AB, priority 2020, dated 2023).

pEC50: −log10 of the molar value.

This experiment addresses T1, human RXFP1 (Homo sapiens, UniProt Q9HBX9).
T1 sequence (Q9HBX9 1-757): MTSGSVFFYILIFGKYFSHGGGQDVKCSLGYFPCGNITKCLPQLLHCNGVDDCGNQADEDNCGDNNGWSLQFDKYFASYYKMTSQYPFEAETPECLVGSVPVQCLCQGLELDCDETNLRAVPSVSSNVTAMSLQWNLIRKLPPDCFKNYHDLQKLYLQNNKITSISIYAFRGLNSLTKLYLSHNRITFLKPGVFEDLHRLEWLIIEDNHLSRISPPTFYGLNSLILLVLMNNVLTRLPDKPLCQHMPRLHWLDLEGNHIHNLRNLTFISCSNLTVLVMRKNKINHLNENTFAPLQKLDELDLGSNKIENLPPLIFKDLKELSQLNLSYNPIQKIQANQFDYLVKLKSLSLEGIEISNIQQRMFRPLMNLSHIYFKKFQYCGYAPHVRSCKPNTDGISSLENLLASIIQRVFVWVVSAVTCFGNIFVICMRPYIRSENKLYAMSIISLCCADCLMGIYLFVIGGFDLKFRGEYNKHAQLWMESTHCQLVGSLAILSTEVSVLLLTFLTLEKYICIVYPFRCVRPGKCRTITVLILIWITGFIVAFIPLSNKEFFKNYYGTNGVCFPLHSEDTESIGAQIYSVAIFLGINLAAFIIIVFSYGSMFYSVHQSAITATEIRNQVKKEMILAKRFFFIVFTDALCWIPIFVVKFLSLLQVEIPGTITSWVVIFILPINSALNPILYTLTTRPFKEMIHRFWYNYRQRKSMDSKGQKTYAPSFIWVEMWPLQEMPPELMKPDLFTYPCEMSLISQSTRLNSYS
Briefly: RXFP1 Hu cAMP (Test A). The class given is cell-based. More on the design: expressed in transfected cells; host or cells: Jump-In T-REx CHO-K1 cells (ThermoFisher), induced with 10 ng/ml doxycycline for 24 h. Conditions: RXFP1 Hu cAMP; for pEC50: read-out: Test A EC50. The procedure, abridged:
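Doxycycline-induced (10 ng/ml, 24 h) CHO-K1 cells stably expressing human RXFP1; cAMP read by competitive HTRF after 2 h at room temperature, with 0.5 mM IBMX final.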

For the compound `COc1cc(F)c(O[C@H]2CC[C@@](C)(C(=O)O)CC2)cc1C(=O)N[C@@H]1CCCO[C@@H]1C(=O)Nc1cccc(S(=O)(=O)C(F)(F)F)c1` [Example 357], the “Test A Sinf” value amounted to 101% and the pEC50 is 5.27.

As for `COCCOc1cc(F)c(O[C@H]2CC[C@@](C)(C(=O)O)CC2)cc1C(=O)N[C@@H]1[C@H]2CC[C@H](C2)[C@@H]1C(=O)NCC1(C)CCC1` [Example 391], the “Test A Sinf” value worked out at 99% and the pEC50 was 6.96.

Regarding `COc1cc(F)c(O[C@H]2CC[C@@](C)(C(=O)O)CC2)cc1C(=O)N[C@H]1[C@@H](C(=O)NCC2(C)CCC2)[C@@H]2CC[C@H]1O2` (racemic) [Example 358], the “Test A Sinf” value was determined as 99% and the pEC50 was 5.29.

On to `COc1cc(F)c(O[C@H]2CC[C@@](C)(C(=O)O)CC2)cc1C(=O)N[C@@H]1COC[C@@H]1C(=O)Nc1ccc(F)c(S(F)(F)(F)(F)F)c1` (racemic) [Example 344], for which the “Test A Sinf” value is 93% and the pEC50 was 7.47.

Turning to “(1R,4s)-4-(2-Cyano-4-methoxy-5-(((1S*,2R*)-2-(((1-methylcyclobutyl)methyl)carbamoyl)cyclobutyl)carbamoyl)phenoxy)-1-methylcyclohexane-1-carboxylic acid [Example 573]”, the “Test A Sinf” value came to 94%.

Consider `COc1cc(C#N)c(O[C@H]2CC[C@@](C)(C(=O)O)CC2)cc1C(=O)Nc1cc(C)ccc1C(=O)NC12CC(C1)C2` [Example 173], for which the “Test A Sinf” value is given as 126% and the pEC50 was 6.72.

“(1R,4s)-4-(2-Fluoro-5-(((3S*,4S*)-4-((4-fluoro-3-(pentafluoro-λ6-sulfaneyl)phenyl)carbamoyl)tetrahydro-2H-pyran-3-yl)carbamoyl)-4-methoxyphenoxy)-1-methylcyclohexane-1-carboxylic acid [Example 575]”: the “Test A Sinf” value came to 101%.

Regarding `Cn1ncc2c(O[C@H]3CC[C@@](C)(C(=O)O)CC3)cc(C(=O)N[C@@H]3[C@H]4CC[C@H](C4)[C@@H]3C(=O)NCC3(C)CCC3)cc21` [Example 379], the “Test A Sinf” value is recorded as 100% and the negative-log EC50 (pEC50) was 6.32.

With `COc1cc(C#N)c(O[C@H]2CC[C@@](C)(C(=O)O)CC2)cc1C(=O)N[C@H]1[C@@H](C(=O)NCC2(C)CCC2)[C@H]2C=C[C@@H]1CC2` (racemic) [Example 469, (1R,4s)-4-(2-Cyano-4-methoxy-5-(((1RS,2SR,3RS,4SR)-3-(((1-methylcyclobutyl)methyl)carbamoyl)bicyclo[2.2.2]oct-5-en-2-yl)carbamoyl)phenoxy)-1-methylcyclohexane-1-carboxylic acid], the “Test A Sinf” value was determined as 99% and the pEC50 is 7.44.

On to `COc1cc(F)c(-c2nc(C(=O)O)cs2)cc1C(=O)N[C@H]1[C@@H](C(=O)Nc2cccc(S(=O)(=O)C(F)(F)F)c2)[C@@H]2C=C[C@H]1C2` (racemic) [Example 286], for which the “Test A Sinf” value is 29%.

For `COc1cc(F)c(O[C@H]2CC[C@@](C)(C(=O)O)CC2)cc1C(=O)N[C@@H]1[C@H]2CC[C@H](C2)[C@@H]1C(=O)NCC1(C(F)(F)F)CCC1` [Example 613], the “Test A Sinf” value is listed as 109% and the negative-log EC50 (pEC50) is 7.12.

Consider `COc1cc(F)c(-c2ccc(C(=O)O)cn2)cc1C(=O)N[C@H]1[C@@H](C(=O)Nc2cccc(S(=O)(=O)C(F)(F)F)c2)[C@@H]2C=C[C@H]1C2` (racemic) [Example 278], for which the “Test A Sinf” value is given as 104%.

Consider `COc1cc(C#N)c(O[C@H]2CC[C@@](C)(C(=O)O)CC2)cc1C(=O)N[C@@H]1[C@H]2CC[C@H](C2)[C@@H]1C(=O)NCc1ccc(F)c(F)c1` [Example 123], for which the “Test A Sinf” value worked out at 107% and the pEC50 is 6.14.

For `COc1cc(F)c(O[C@H]2CC[C@@H](C(=O)O)CC2)cc1C(=O)N[C@@H]1[C@H](C(=O)Nc2ccc(F)c(C(F)(F)F)c2)[C@H]2C=C[C@@H]1C2` [Example 501, (1R,4s)-4-(2-Fluoro-5-(((1S,2S,3R,4R)-3-((4-fluoro-3-(trifluoromethyl)phenyl)carbamoyl)bicyclo[2.2.1]hept-5-en-2-yl)carbamoyl)-4-methoxyphenoxy)cyclohexane-1-carboxylic acid], the “Test A Sinf” value came out at 82%.

For `COc1cc(F)c(O[C@H]2CC[C@@](CO)(C(=O)O)CC2)cc1C(=O)NC1COCC1C(=O)NCC1(C)CCC1` (single isomer, unassigned) [Example 580, (1R,4s)-4-(2-Fluoro-4-methoxy-5-(((3S*,4R*)-4-(((1-methylcyclobutyl)methyl)carbamoyl)tetrahydrofuran-3-yl)carbamoyl)phenoxy)-1-(hydroxymethyl)cyclohexane-1-carboxylic acid], the negative logarithm of the EC50 (pEC50) was less than 4.40.

In the case of `COc1cc(F)c(O[C@H]2CC[C@@](C)(C(=O)O)CC2)cc1C(=O)N[C@@H]1[C@H]2CC[C@H](C2)[C@@H]1C(=O)NC(C)(C)C(F)(F)F` [Example 603], the “Test A Sinf” value was found to be 99% and the pEC50 is 7.03.

With `COc1cc(F)c(-c2cccc(C(=O)O)c2)cc1C(=O)N[C@@H]1CCC[C@@H]1C(=O)Nc1cccc(S(=O)(=O)C(F)(F)F)c1` [Example 317, 2′-Fluoro-4′-methoxy-5′-(((1R,2S)-2-((3-((trifluoromethyl)sulfonyl)phenyl)carbamoyl)cyclopentyl)carbamoyl)-[1,1′-biphenyl]-3-carboxylic acid], the “Test A Sinf” value is recorded as 75% and the negative logarithm of the EC50 (pEC50) is 5.92.

Take `CCOc1cc(F)c(O[C@H]2CC[C@@](C)(C(=O)O)CC2)cc1C(=O)N[C@@H]1[C@H]2CC[C@H](C2)[C@@H]1C(=O)NC12CC(F)(C1)C2` [Example 384]: the “Test A Sinf” value is 108% and the pEC50 is 6.89.

With `COc1cc(F)c(O[C@H]2CC[C@@](C)(C(=O)O)CC2)cc1C(=O)N[C@@H]1COC[C@@H]1C(=O)NCC1(C)CCC1` (racemic) [Example 350], the “Test A Sinf” value was 97% and the negative-log EC50 (pEC50) is 5.41.

`COC[C@]1(C(=O)O)CC[C@@H](Oc2cc(C(=O)N[C@@H]3[C@@H]4CC[C@@H](C4)[C@@H]3C(=O)Nc3cccc(S(=O)(=O)C(F)(F)F)c3)c(OC)cc2F)CC1` [Example 479]: the “Test A Sinf” value was found to be 104% and the pEC50 is 8.11.

Regarding `COc1cc(F)c(O[C@H]2CC[C@@](C)(C(=O)O)CC2)cc1C(=O)N[C@@H]1[C@H]2CC[C@H](C2)[C@@H]1C(=O)NC12CC(C1)C2` [Example 600], the “Test A Sinf” value is recorded as 104% and the negative logarithm of the EC50 (pEC50) was 6.85.

As for `COc1ccc(Oc2ccccc2C(=O)O)cc1C(=O)N[C@H]1[C@@H](C(=O)Nc2cccc(S(=O)(=O)C(F)(F)F)c2)[C@@H]2C=C[C@H]1C2` (racemic) [Example 429], the pEC50 is less than 4.40.

On to `COc1cc(F)c(-c2cnc([C@@H]3C[C@H]3C(=O)O)cn2)cc1C(=O)N[C@@H]1[C@H]2CC[C@H](C2)[C@@H]1C(=O)Nc1cccc(S(=O)(=O)C(F)(F)F)c1` (single isomer, unassigned) [Example 264, (1R*,2R*)-2-(5-(2-Fluoro-4-methoxy-5-(((1S,2R,3S,4R)-3-((3-((trifluoromethyl)sulfonyl)phenyl)carbamoyl)bicyclo[2.2.1]heptan-2-yl)carbamoyl)phenyl)pyrazin-2-yl)cyclopropane-1-carboxylic acid], for which the “Test A Sinf” value was found to be 101% and the pEC50 was 7.09.

On to `COc1cc(F)c(O[C@H]2CC[C@@](C)(C(=O)O)CC2)cc1C(=O)N[C@@H]1[C@H]2CC[C@H](C2)[C@@H]1C(=O)NCC(C)(C)O` [Example 611], for which the pEC50 is less than 4.40.

Consider “(1R,4s)-4-(2-Fluoro-4-methoxy-5-(((1R*,2S*,3R*,4S*)-3-(((1-methylcyclobutyl)methyl)carbamoyl)bicyclo[2.2.2]oct-5-en-2-yl)carbamoyl)phenoxy)-1-methylcyclohexane-1-carboxylic acid [Example 545]”, for which the “Test A Sinf” value was 91%.

Consider `COc1cc(F)c(OCc2ccc(C(=O)O)cc2)cc1C(=O)N[C@H]1[C@@H](C(=O)Nc2cccc(S(=O)(=O)C(F)(F)F)c2)[C@@H]2C=C[C@H]1C2` (racemic) [Example 450], for which the “Test A Sinf” value is 107% and the pEC50 was 6.21.

As for `COc1cc(F)c(O[C@H]2CC[C@@](C)(C(=O)O)CC2)cc1C(=O)NC1C(OC)CCC1C(=O)Nc1cccc(S(=O)(=O)C(F)(F)F)c1` (single isomer, unassigned) [Example 526, (1R,4s)-4-(2-Fluoro-4-methoxy-5-(((1S*,2S*,5S*)-2-methoxy-5-((3-((trifluoromethyl)sulfonyl)phenyl)carbamoyl)cyclopentyl)carbamoyl)phenoxy)-1-methylcyclohexane-1-carboxylic acid], the pEC50 was less than 4.40.

As for `COc1cc(C#N)c(O[C@H]2CC[C@@](C)(C(=O)O)CC2)cc1C(=O)Nc1cc(Cl)ccc1C(=O)N[C@H](C)C(C)(C)F` [Example 162], the “Test A Sinf” value is listed as 107% and the pEC50 was 7.16.
